Read-outs that look alike come from different tables or passages of the source. Bounds are passed on as bounds.

Data set [1] has as its system 6 Hz-induced psychomotor seizures. Description: 6 Hz psychomotor seizure test. The class given is in vivo, mice. The settings on record: for ED50: Mus musculus, ip; for Protective index (TD50/ED50): TD50 chimney test / ED50 6 Hz test. Here is the method:
All experiments on animals were performed in accordance with EU Directive 2010/63/EU for animal experiments and complied with the ARRIVE guidelines. Ethics approval for animal experimentations was obtained from the Local Ethics Committee (Lublin, Poland, approval number: 65/2018). Psychomotor seizures in mice were evoked by current (6 Hz, 0.2 ms rectangular pulse width, 32 mA, 3 s duration) generated by an S48 Square Pulse Stimulator and CCU1 Constant Current Unit (Grass Technologies, West Warwick, RI, USA). After application of ophthalmic anaesthetic (0.5% tetracaine hydrochloride) to the mice corneas, the animals underwent corneal stimulation and were placed separately in plexiglas cages (25 × 15 × 10 cm) for the observation of the presence or absence of psychomotor seizures. The animals were administered with increasing doses of TP-10, TP-315, TP-427, and the anticonvulsant activity of each compound was evaluated as the ED50 value (median effective dose of the drug, which protects 50% of mice against convulsions) calculated using the log-probit method of Litchfield and Wilcoxon[18].

In the next data set the test system is U-87 MG cells. Description: Total ROS activity assay (flow cytometry). The class given is cell-based, human. The settings on record: 10 µg/ml, 24 h; for ROS positive cells: control 90.2%. On the procedure:
Total ROS activity was measured using Intracellular Total ROS Activity Assay Kit (ImmunoChemistry Technologies, Bloomington, MN, USA). After 24 h of incubation of glioblastoma cells U-87 MG (ATCC, Manassas, VA, USA) with the test compounds in concentration 10 µg/ml, the medium was removed, the cells were washed twice with the cold PBS solution and the Assay Buffer (provided by the kit manufacturer) was added. Then, cells (at a density of 1 × 10^6 cells/ml) were treated with 10 µl of Total ROS green reagent and incubated for 1 h at 37 °C in a CO2 incubator. After incubation, the cells were subjected to a rinsing procedure using the Assay Buffer. Cells were suspended in 500 µl of the Assay Buffer and analysed using a flow cytometer (BD FACSCanto II flow cytometer) and FACSDiva software (both from BD Biosciences Systems, San Jose, CA, USA).
Background: In flow cytometry, cells or beads pass a laser one at a time.

Another data set concerns the target T1, hCA I (Homo sapiens, UniProt P00915).
T1 construct: made in house
The experiment in a line: Carbonic anhydrase inhibition, stopped flow CO2 hydration. The class given is biochemical. The settings on record: 1 h incubation. On the procedure:
Carbonic anhydrase catalysed CO2 hydration activity was measured using an Applied Photophysics stopped-flow spectrometer. […] The uncatalyzed rates were determined in the same manner and subtracted from the total observed rates. Stock solutions of inhibitor (0.1 mM) were prepared in distilled-deionized water and dilutions up to 0.01 nM were done thereafter with the assay buffer. […] The inhibition constants were obtained by non-linear least-squares methods using PRISM 3 and the Cheng–Prusoff equation and represent the mean from at least three different determinations. All CA isoforms were recombinant ones obtained in-house[21]^,[22].

In data set [2] the test system is generalised tonic-clonic seizures (MES test). The arrangement: method as in PMID 30594731, PMID 23291122, PMID 25226229, PMID 25090118. The settings on record: Figure 1, cited from earlier work; for ED50: MES test.
In a further data set the test system is HEK-293. The arrangement: method as in PMID 30594731, PMID 28824309. The settings on record: 10 µg/ml; cited from earlier work.
The subject of the next data set is HepG2. On the set-up: method as in PMID 30594731, PMID 28824309. The settings on record: 10 µg/ml; cited from earlier work.
A further data set relates to motor coordination. The settings on record: cited from earlier work; for TD50 ± SEM: chimney test.
Setting [3] is: mice, i.p., 32 mA, pretreatment time 15 min, read-out: ED50 ± SEM.
[4] abbreviates: mice, i.p., 32 mA, pretreatment time 30 min, read-out: ED50 ± SEM.
[5] abbreviates: mice, i.p., 32 mA, pretreatment time 60 min, read-out: ED50 ± SEM.
[6] abbreviates: mice, i.p., 32 mA, pretreatment time 120 min, read-out: ED50 ± SEM.
[7] abbreviates: mice, i.p., pretreatment times 15 to 120 min, read-out: ED50, range over the time-course.

T1 sequence (P00915 whole entry): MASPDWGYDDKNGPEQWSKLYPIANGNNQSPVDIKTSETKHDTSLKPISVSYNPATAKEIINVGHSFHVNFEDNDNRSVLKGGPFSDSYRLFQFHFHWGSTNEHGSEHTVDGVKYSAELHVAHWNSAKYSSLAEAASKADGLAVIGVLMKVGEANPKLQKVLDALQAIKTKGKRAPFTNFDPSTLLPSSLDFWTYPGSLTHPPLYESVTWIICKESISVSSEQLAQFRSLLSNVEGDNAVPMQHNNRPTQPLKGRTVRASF

Take `Cc1ccc(-n2c(-c3cccc(Cl)c3)n[nH]c2=S)cc1` [TP-10, 5-(3-chlorophenyl)-4-(4-methylphenyl)-2,4-dihydro-3H-1,2,4-triazole-3-thione]: the ED50 (usually the dose that gives a 50% effect, or the effect in half of the subjects) is around 60 mg/kg in data set [1] (0.5 h, within the first 30 min after i.p. administration, read-out: ED50 (constant activity)); 62.6 ± 13.2 mg/kg in data set [1] (setting [3]); 61.1 ± 9.7 mg/kg in data set [1] (setting [4]); 170 ± 18.5 mg/kg in data set [1] (setting [5]); 168 ± 17.4 mg/kg in data set [1] (setting [6]); 61.1 to 170 mg/kg in data set [1] (setting [7]). In addition, the ED50 in data set [2] is on record as 57.0 mg/kg. Moreover, the “Protective index (TD50/ED50)” value in data set [1] (pretreatment time 15 min) is on record as 5.4; in data set [1] (pretreatment time 30 min), 5.5; in data set [1] (pretreatment time 60 min), 2.0; in data set [1] (pretreatment time 120 min), 2.4. In data set [1] (mice, i.p.), the “Peak of anticonvulsant activity (time after i.p. administration)” value (shortened to “Peak … (time after i.p. administration)”) is 30 min. Further, the ROS negative cells with U-87 MG cells is on record as 11.5%. In addition, in the data set with U-87 MG cells, the ROS positive cells is listed as 88.5%. Also, on hCA I, the affinity corresponds to a Ki of 2190 nM. Further, the “interaction with VPA” value in data set [2] is given as “synergism with VPA”.
For `CCCCCCn1c(-c2cccc(Cl)c2)n[nH]c1=S` [TP-315, 5-(3-chlorophenyl)-4-hexyl-2,4-dihydro-3H-1,2,4-triazole-3-thione], the median effective dose (ED50) in data set [1] (setting [3]) is 61.3 ± 10.1 mg/kg; in data set [1] (setting [4]) it was 59.7 ± 6.8 mg/kg; in data set [1] (setting [5]), 68.1 ± 11 mg/kg; in data set [1] (setting [6]) it was 136 ± 18.3 mg/kg; in data set [1] (setting [7]), 59.7 to 136 mg/kg; in data set [2] it was 47.6 mg/kg. Further, the “Protective index (TD50/ED50)” value in data set [1] (pretreatment time 15 min) is recorded as 7.6; in data set [1] (pretreatment time 30 min), 7.8; in data set [1] (pretreatment time 60 min) it was 6.7; in data set [1] (pretreatment time 120 min), 3.3. Besides, the “Peak … (time after i.p. administration)” value in data set [1] (mice, i.p.) came out at 30 min. The same compound registered an ROS negative cells in the data set on U-87 MG cells of 14.1%. In the data set with U-87 MG cells, the ROS positive cells was 85.9%. In the data set with HEK-293, the “toxicity for HEK-293 cells” value is reported as “non-toxic”. Further, in the data set with HepG2, the “toxicity for HepG2 cells” value is reported as “non-toxic”.
As to `CCCCCCn1c(Cc2cccc(Cl)c2)n[nH]c1=S` [TP-427, 5-(3-chlorobenzyl)-4-hexyl-2,4-dihydro-3H-1,2,4-triazole-3-thione], the ED50 in data set [1] (setting [3]) was 40.9 ± 6.4 mg/kg; in data set [1] (setting [4]), 46.6 ± 8.2 mg/kg; in data set [1] (setting [5]), 51.6 ± 6.9 mg/kg; in data set [1] (setting [6]), 64.9 ± 5.6 mg/kg; in data set [1] (setting [7]), 40.9 to 64.9 mg/kg; in data set [2], 72.1 mg/kg. Moreover, the “Protective index (TD50/ED50)” value is above 24.4 in data set [1] (pretreatment time 15 min), above 21.5 in data set [1] (pretreatment time 30 min), 10.5 in data set [1] (pretreatment time 60 min) and 8.5 in data set [1] (pretreatment time 120 min). In addition, the “Peak … (time after i.p. administration)” value in data set [1] (mice, i.p.) is 15 min. The ROS negative cells in the data set on U-87 MG cells came out at 20.9%. In the data set with U-87 MG cells, this compound registered an ROS positive cells of 79.1%. The Ki (in general, the dissociation constant of the complex between target and ligand, obtained from inhibition or displacement) on hCA I is above 100000 nM. Further, the “interaction with VPA” value in data set [2] was “synergism with VPA”. Further, in the data set with HEK-293, the “toxicity for HEK-293 cells” value is “non-toxic”. In addition, the “toxicity for HepG2 cells” value in the data set on HepG2 is recorded as “non-toxic”. Also, the TD50 (as a rule, the dose at which the toxic effect under study appears in half of the subjects) with motor coordination (Figure 1, pretreatment time not given) is reported as above 1000 mg/kg. Moreover, the “TD50 ± SEM” value with motor coordination (pretreatment time 15 min) and in the data set on motor coordination (pretreatment time 30 min) was above 1000 mg/kg in each case.

These data come from article PMC7178883, “1,2,4-Triazole-based anticonvulsant agents with additional ROS scavenging activity are effective in a model of pharmacoresistant epilepsy” (Journal of Enzyme Inhibition and Medicinal Chemistry, 2020).
